Values quoted from earlier work as cited in patent publication US5514648A, “Fungicidally active compounds” (priority 1990, dated 1996).

Assays:
Bacillus subtilis = details: against Bacillus subtilis; cited from earlier work
Escedchia coli = details: against Escedchia coli; cited from earlier work
Staphylococcus aureus = details: against Staphylococcus aureus; cited from earlier work
Penicillium digitalum = details: spore germination test with Penicillium digitalum; cited from earlier work

Question: For `CC1CCCCCC(=O)c2c(O)cc(O)cc2CC(=O)O1` (stereo not shown) [curvularin, Curvularin], which anti-bacterial activity (Bacillus subtilis) is on record?
Answer: Its anti-bacterial activity is “Neither curvularin nor the crude filtrates from Curvularia showed”.

Question: What about the anti-bacterial activity (Escedchia coli) of the same compound?
Answer: Its anti-bacterial activity is “Neither curvularin nor the crude filtrates from Curvularia showed”.

Question: What about the anti-bacterial activity (Staphylococcus aureus) of the same compound?
Answer: The anti-bacterial activity was “Neither curvularin nor the crude filtrates from Curvularia showed”.

Question: What about the anti-fungal activity (Penicillium digitalum) of the same compound?
Answer: The anti-fungal activity was “Neither curvularin nor the crude filtrates from Curvularia showed”.
